Article PMC7606641 (Biochemical pharmacology, 2020)
Marks after values point to notes of the source that are not given here.

Assay: not given
Parameters: species or system CD-1 mice
Details: mouse, in vivo, iv

Peak percent of injected 125I-IRA taken up per gram brain tissue (%Inj/g) [%]	Substance
0.15	YXEGTFTSDYSIYLDKQAAXEFVNWLLAGGPSSGAPPPSC-NH2 [Peptide 17]
0.08	YXEGTFTSDYSIYLDKQAAXEFVNWLLAGGPSSGAPPPSK-NH2 [DA3-CH]
0.17	YXEGTFTSDYSIYLDKQAAXEFVNWLLAGGPSSGAPPPSKKKKKK-NH2 [DA-JC4]

Substance	Peak percent of injected 125I-IRA taken up per gram brain tissue (%Inj/g) [%]
YXEGTFTSDYSIYLDKQAAXEFVC ^*WLLAGGPSSGAPPPSK-NH2 [Peptide 20]	0.05

Assay: not given
Details: in vivo; cited from earlier work

Substance	Percentage of injected dose entering the brain (%Inj/g) [%]
leptin: hormone crossing the BBB, literature comparison	0.171

Assay: not given
Parameters: species or system CD-1 mice
Details: mouse, in vivo, iv
Remark: another data set of the same source

Half-Time Serum Clearance t1/2 [min]	Substance
167.22	HAEGTFTSDVSSYLEGQAAK^aEFIAWLVRGRG-OH [Liraglutide]
149.31	HXEGTFTSDVSSYLEGQAAK^bEFIAWLVRGRG-OH [Semaglutide]
39.61	YXEGTFTSDYSIYLDKQAAXEFVNWLLAGGPSSGAPPPSC-NH2 [Peptide 17]
42.57	YXEGTFTSDYSIYLDKQAAXEFVNWLLAGGPSSGAPPPSK-NH2 [DA3-CH]
32.37	YXEGTFTSDYSIYLDKQAAXEFVNWLLAGGPSSGAPPPSK-NH2 [Peptide 18]
151.94	YXEGTFTSDYSIYLDKQAAXEFVNWLLAGGPSSGAPPPSKKKKKK-NH2 [DA-JC4]

Substance	Half-Time Serum Clearance t1/2 [min]
YXEGTFTSDYSIYLDKQAAXEFVC ^*WLLAGGPSSGAPPPSK-NH2 [Peptide 20]	43

Assay: not given
Parameters: species or system CD-1 mice
Details: mouse, in vivo, iv
Remark: another data set of the same source

Capillary Depletion: %Parenchyma (percent of IRA reaching the brain found in parenchyma vs capillaries) [%]	Capillary Depletion: Capillary (capillary/serum ratio) [µL/g]	Capillary Depletion: Parenchyma (parenchyma/serum ratio) [µL/g]	Substance	Percent of IRA reaching the brain trapped in the capillaries [%]
28.7			HAEGTFTSDVSSYLEGQAAK^aEFIAWLVRGRG-OH [Liraglutide]	71.3
	0.434 ± 0.056	-0.850 ± 0.533	HXEGTFTSDVSSYLEGQAAK^bEFIAWLVRGRG-OH [Semaglutide]	
73.2	0.543 ± 0.178	1.482 ± 0.462	YXEGTFTSDYSIYLDKQAAXEFVNWLLAGGPSSGAPPPSC-NH2 [Peptide 17]	
86.02	0.637 ± 0.073	3.918 ± 0.993	YXEGTFTSDYSIYLDKQAAXEFVNWLLAGGPSSGAPPPSK-NH2 [DA3-CH]	
	0.764 ± 0.092	-0.306 ± 0.219	YXEGTFTSDYSIYLDKQAAXEFVNWLLAGGPSSGAPPPSK-NH2 [Peptide 18]	
89.7	1.129 ± 0.597	9.855 ± 2.751	YXEGTFTSDYSIYLDKQAAXEFVNWLLAGGPSSGAPPPSKKKKKK-NH2 [DA-JC4]	

Substance	Capillary Depletion: %Parenchyma (percent of IRA reaching the brain found in parenchyma vs capillaries) [%]	Capillary Depletion: Capillary (capillary/serum ratio) [µL/g]	Capillary Depletion: Parenchyma (parenchyma/serum ratio) [µL/g]	Percent of IRA reaching the brain trapped in the capillaries [%]
YXEGTFTSDYSIYLDKQAAXEFVC ^*WLLAGGPSSGAPPPSK-NH2 [Peptide 20]	43.6	0.796 ± 0.252	0.615 ± 0.807	56.4

Assay: not given
Format: physicochemical
Details: pH 7.5

Lipid Solubility Partition Coefficient	Log Partition Coefficient (Log P)	Substance
0.0353 ± 0.0016	−1.452 ± 0.0199	HXEGTFTSDVSSYLEGQAAK^bEFIAWLVRGRG-OH [Semaglutide]
0.0052 ± 0.0049	−2.564 ± 0.5921	YXEGTFTSDYSIYLDKQAAXEFVNWLLAGGPSSGAPPPSC-NH2 [Peptide 17]
0.0048 ± 0.0015	−2.325 ± 0.1318	YXEGTFTSDYSIYLDKQAAXEFVNWLLAGGPSSGAPPPSK-NH2 [DA3-CH]
0.2493 ± 0.0239	−0.604 ± 0.0418	YXEGTFTSDYSIYLDKQAAXEFVNWLLAGGPSSGAPPPSK-NH2 [Peptide 18]
0.0030 ± 0.0008	−2.520 ± 0.1184	YXEGTFTSDYSIYLDKQAAXEFVNWLLAGGPSSGAPPPSKKKKKK-NH2 [DA-JC4]

Substance	Lipid Solubility Partition Coefficient	Log Partition Coefficient (Log P)
YXEGTFTSDYSIYLDKQAAXEFVC ^*WLLAGGPSSGAPPPSK-NH2 [Peptide 20]	0.0057 ± 0.0008	−2.249 ± 0.0671

Assay: not given
Parameters: species or system CD-1 mice
Details: mouse, in vivo, iv
Remark: another data set of the same source

125I-IRA remaining intact, Serum, 10 min [%]	125I-IRA remaining intact, Serum, 60 min	125I-IRA remaining intact, Whole Brain, 10 min [%]	Degradation (loss of precipitable 125I-IRA) in serum from 10 to 60 min	Degradation (loss of precipitable 125I-IRA) in whole brain from 10 to 60 min	125I-IRA remaining intact, Whole Brain, 60 min	Substance
101.2 ± 0.062	100.18 ± 0.244^a %	100.1 ± 4.206	less than 2%	less than 12%		HAEGTFTSDVSSYLEGQAAK^aEFIAWLVRGRG-OH [Liraglutide]
100.0 ± 0.031	98.91 ± 0.029^a %	95.55 ± 1.139	less than 2%	less than 12%		HXEGTFTSDVSSYLEGQAAK^bEFIAWLVRGRG-OH [Semaglutide]
95.77 ± 0.350	81.20 ± 1.960^a %	78.98 ± 3.930			52.91 ± 5.030^a %	YXEGTFTSDYSIYLDKQAAXEFVNWLLAGGPSSGAPPPSC-NH2 [Peptide 17]
93.26 ± 1.110	73.65 ± 3.138^a %	71.59 ± 12.14	19.6%	44.9%	26.71 ± 17.23^a %	YXEGTFTSDYSIYLDKQAAXEFVNWLLAGGPSSGAPPPSK-NH2 [DA3-CH]
99.85 ± 0.020	90.78 ± 4.440%	107.8 ± 3.37				YXEGTFTSDYSIYLDKQAAXEFVNWLLAGGPSSGAPPPSK-NH2 [Peptide 18]
85.66 ± 1.866	63.32 ± 1.987^a %	69.63 ± 16.36			47.99 ± 18.71%	YXEGTFTSDYSIYLDKQAAXEFVNWLLAGGPSSGAPPPSKKKKKK-NH2 [DA-JC4]

Substance	125I-IRA remaining intact, Serum, 10 min [%]	125I-IRA remaining intact, Serum, 60 min	125I-IRA remaining intact, Whole Brain, 10 min [%]	Degradation (loss of precipitable 125I-IRA) in serum from 10 to 60 min	Degradation (loss of precipitable 125I-IRA) in whole brain from 10 to 60 min	125I-IRA remaining intact, Whole Brain, 60 min
YXEGTFTSDYSIYLDKQAAXEFVC ^*WLLAGGPSSGAPPPSK-NH2 [Peptide 20]	100.16 ± 0.120	93.80 ± 1.850^a %	99.4 ± 2.070			

Assay: Saturability of brain uptake
Parameters: species or system CD-1 mice
Details: mouse, in vivo, iv

Serum radioactivity, Without Unlabeled IRA [cpm/μL]	Whole Brain brain/serum ratio, Without Unlabeled IRA [µL/g]	Substance
692.1 ± 55.27	9.637 ± 0.308	HXEGTFTSDVSSYLEGQAAK^bEFIAWLVRGRG-OH [Semaglutide]
81.33 ± 6.720	11.41 ± 0.528	YXEGTFTSDYSIYLDKQAAXEFVNWLLAGGPSSGAPPPSC-NH2 [Peptide 17]
65.07 ± 6.275	20.86 ± 1.943	YXEGTFTSDYSIYLDKQAAXEFVNWLLAGGPSSGAPPPSK-NH2 [DA3-CH]
	7.18 ± 0.202	YXEGTFTSDYSIYLDKQAAXEFVNWLLAGGPSSGAPPPSK-NH2 [Peptide 18]
29.32 ± 2.014	15.10 ± 1.243	YXEGTFTSDYSIYLDKQAAXEFVNWLLAGGPSSGAPPPSKKKKKK-NH2 [DA-JC4]

Substance	Serum radioactivity, Without Unlabeled IRA [cpm/μL]	Whole Brain brain/serum ratio, Without Unlabeled IRA [µL/g]
YXEGTFTSDYSIYLDKQAAXEFVC ^*WLLAGGPSSGAPPPSK-NH2 [Peptide 20]	217.3 ± 7.176	9.51 ± 0.421

Assay: not given
Parameters: species or system CD-1 mice
Details: mouse, in vivo

Initial Volume of Distribution in Brain Vi [µL/g]	Substance
2.434 ± 0.5977	HAEGTFTSDVSSYLEGQAAK^aEFIAWLVRGRG-OH [Liraglutide]
-0.340 ± 0.3285	HXEGTFTSDVSSYLEGQAAK^bEFIAWLVRGRG-OH [Semaglutide]
1.057 ± 0.1876	YXEGTFTSDYSIYLDKQAAXEFVNWLLAGGPSSGAPPPSC-NH2 [Peptide 17]
2.186 ± 0.5638	YXEGTFTSDYSIYLDKQAAXEFVNWLLAGGPSSGAPPPSK-NH2 [DA3-CH]
0.2034 ± 0.1134	YXEGTFTSDYSIYLDKQAAXEFVNWLLAGGPSSGAPPPSK-NH2 [Peptide 18]
2.495 ± 0.8554	YXEGTFTSDYSIYLDKQAAXEFVNWLLAGGPSSGAPPPSKKKKKK-NH2 [DA-JC4]

Substance	Initial Volume of Distribution in Brain Vi [µL/g]
YXEGTFTSDYSIYLDKQAAXEFVC ^*WLLAGGPSSGAPPPSK-NH2 [Peptide 20]	0.4075 ± 0.2728

Same assay, conditions: mouse, in vivo, iv

Blood to Brain Influx Ki	Substance
ns	HAEGTFTSDVSSYLEGQAAK^aEFIAWLVRGRG-OH [Liraglutide]
ns	HXEGTFTSDVSSYLEGQAAK^bEFIAWLVRGRG-OH [Semaglutide]
0.3489 ± 0.0228 µL/g/min	YXEGTFTSDYSIYLDKQAAXEFVNWLLAGGPSSGAPPPSC-NH2 [Peptide 17]
0.3922 ± 0.0668 µL/g/min	YXEGTFTSDYSIYLDKQAAXEFVNWLLAGGPSSGAPPPSK-NH2 [DA3-CH]
ns	YXEGTFTSDYSIYLDKQAAXEFVNWLLAGGPSSGAPPPSK-NH2 [Peptide 18]
0.6680 ± 0.1089 µL/g/min	YXEGTFTSDYSIYLDKQAAXEFVNWLLAGGPSSGAPPPSKKKKKK-NH2 [DA-JC4]
